US20230072683A1, “PYRIDO-PYRIMIDIN DERIVATIVES AND PHARMACEUTICAL COMPOSITION, FOR USE IN PREVENTING OR TREATING PI3 KINASE RELATED DISEASES, COMPRISING SAME AS ACTIVE INGREDIENT” (BORYUNG PHARMACEUTICAL CO., LTD, priority 2019, published 2023)
Where two headings read alike, the source gives them in different places.

How the values were obtained:
[1] = target: PI3K-δ (PI3K(p1108/p857) (h)) (Homo sapiens, UniProt O00329); assay: Evaluation of inhibitory activity against PI3K-δ (HTRF kinase assay); type: biochemical; details: for inhibition at 0.1 µM: read-out: EXP_VALUE(% Inhibition) PI3K-δ 0.1 μM; for inhibition at 0.01 µM: compound concentration 0.01 μM, read-out: EXP_VALUE(% Inhibition) PI3K-δ 0.01 μM
PI3K-δ (PI3K(p1108/p857) (h)), sequence (O00329 whole entry, the tested form may be a part): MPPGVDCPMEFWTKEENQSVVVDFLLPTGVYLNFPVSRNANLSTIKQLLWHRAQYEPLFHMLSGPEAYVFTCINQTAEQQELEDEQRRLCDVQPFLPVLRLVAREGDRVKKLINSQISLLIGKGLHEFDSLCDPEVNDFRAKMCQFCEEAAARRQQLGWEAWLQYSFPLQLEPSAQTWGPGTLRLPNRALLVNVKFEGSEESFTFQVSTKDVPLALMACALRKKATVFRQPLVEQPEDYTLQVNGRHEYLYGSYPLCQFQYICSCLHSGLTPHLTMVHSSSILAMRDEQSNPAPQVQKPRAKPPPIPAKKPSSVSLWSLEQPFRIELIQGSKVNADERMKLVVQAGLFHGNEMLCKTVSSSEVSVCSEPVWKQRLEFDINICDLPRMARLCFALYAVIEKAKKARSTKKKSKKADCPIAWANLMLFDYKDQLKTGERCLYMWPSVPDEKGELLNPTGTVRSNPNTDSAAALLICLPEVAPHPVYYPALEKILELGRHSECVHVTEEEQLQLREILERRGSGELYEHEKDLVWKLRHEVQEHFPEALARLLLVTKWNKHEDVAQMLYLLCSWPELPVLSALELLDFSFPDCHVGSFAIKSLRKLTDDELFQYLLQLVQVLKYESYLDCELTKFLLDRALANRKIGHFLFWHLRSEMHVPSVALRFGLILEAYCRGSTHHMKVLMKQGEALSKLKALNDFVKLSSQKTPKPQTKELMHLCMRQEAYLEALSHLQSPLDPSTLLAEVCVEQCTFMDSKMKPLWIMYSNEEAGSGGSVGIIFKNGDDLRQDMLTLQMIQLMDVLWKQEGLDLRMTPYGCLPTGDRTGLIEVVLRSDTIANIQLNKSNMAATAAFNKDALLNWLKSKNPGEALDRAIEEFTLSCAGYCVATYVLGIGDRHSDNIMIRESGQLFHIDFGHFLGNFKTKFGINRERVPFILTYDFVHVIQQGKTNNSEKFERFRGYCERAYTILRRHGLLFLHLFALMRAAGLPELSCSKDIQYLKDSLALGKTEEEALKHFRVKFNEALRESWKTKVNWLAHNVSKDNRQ
PI3K-δ (PI3K(p1108/p857) (h)), sequence (P27986 whole entry partner, the tested form may be a part): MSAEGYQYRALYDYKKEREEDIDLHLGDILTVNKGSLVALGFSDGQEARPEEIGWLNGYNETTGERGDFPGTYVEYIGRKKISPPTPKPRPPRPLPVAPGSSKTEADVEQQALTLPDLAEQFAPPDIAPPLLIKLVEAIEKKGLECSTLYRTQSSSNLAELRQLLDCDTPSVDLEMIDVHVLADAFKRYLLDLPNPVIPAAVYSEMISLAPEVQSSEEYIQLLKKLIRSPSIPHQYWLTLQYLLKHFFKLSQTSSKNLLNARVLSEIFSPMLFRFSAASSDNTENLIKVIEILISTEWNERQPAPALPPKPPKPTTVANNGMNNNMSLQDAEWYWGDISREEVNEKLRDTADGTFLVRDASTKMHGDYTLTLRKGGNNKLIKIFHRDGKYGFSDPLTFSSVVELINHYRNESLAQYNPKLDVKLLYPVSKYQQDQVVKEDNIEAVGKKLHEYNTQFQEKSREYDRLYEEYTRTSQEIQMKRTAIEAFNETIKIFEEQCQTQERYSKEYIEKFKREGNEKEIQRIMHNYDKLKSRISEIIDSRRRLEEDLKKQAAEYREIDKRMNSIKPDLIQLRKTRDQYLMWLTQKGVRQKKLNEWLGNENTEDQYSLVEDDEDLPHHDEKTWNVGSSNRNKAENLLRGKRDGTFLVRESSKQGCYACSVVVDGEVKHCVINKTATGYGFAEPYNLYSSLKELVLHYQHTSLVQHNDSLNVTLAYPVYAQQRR
Method in brief: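 HTRF read-out (665/620 nm ratio ×10000) used Eu-labelled anti-GST, GST-tagged GRP1 PH domain and streptavidin-allophycocyanin after EDTA/PIP3 stop.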

DNA-PK(h) = DNA-PK(h) (Homo sapiens, UniProt P78527); assay: Evaluation of inhibitory activity against DNA-PK (HTRF kinase assay, GST-cMyc-p53 substrate); type: biochemical; details: for inhibition at 0.1 µM: read-out: EXP_VALUE(% Inhibition) DNA-PK(h) 0.1 μM; for inhibition at 0.01 µM: compound concentration 0.01 μM, read-out: EXP_VALUE(% Inhibition) DNA-PK(h) 0.01 μM
Method in brief: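 Human DNA-PK with 50 μM GST-cMyc-p53 substrate; reaction started with Mg/ATP, run 30 min at room temperature, stopped with EDTA. Phospho-Ser15 p53 detected by HTRF (Eu anti-phospho-Ser15, d2 anti-GST), signal = 10000×(Em 665/Em 620).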

| inhibition at 0.1 µM ([1]; compound at 0.1 μM) [%] | inhibition at 0.1 µM (DNA-PK(h); compound at 0.1 μM) [%] | inhibition at 0.1 µM ([1]; compound concentration 0.1 μM) [%] | inhibition at 0.1 µM (DNA-PK(h); compound concentration 0.1 μM) [%] | inhibition at 0.01 µM [1] [%] | inhibition at 0.01 µM (DNA-PK(h)) [%] | Structure (SMILES) |
| --- | --- | --- | --- | --- | --- | --- |
| 33 | 53 | – | – | – | – | C[C@H](Nc1ncnc2[nH]ccc(=O)c12)c1c(Cl)c2cccc(Oc3cccnc3)c2c(=O)n1-c1ccccc1 [Example 437, (S)-4-((1-(4-chloro-1-oxo-2-phenyl-8-(pyridin-3-yloxy)-1,2-dihydroisoquinolin-3-yl)ethyl)amino)pyrido[2,3-d]pyrimidin-5(8H)-one] |
| 79 | 10 | – | – | – | – | COc1ncc(-c2cccc3cc([C@H](C)Nc4ncnc5[nH]ccc(=O)c45)n(-c4ccccc4)c(=O)c23)cn1 [Example 383, (S)-4-((1-(8-(2-methoxypyrimidin-5-yl)-1-oxo-2-phenyl-1,2-dihydroisoquinolin-3-yl)ethyl)amino)pyrido[2,3-d]pyrimidin-5(8H)-one] |
| – | – | 48 | 36 | – | – | C[C@H](Nc1ncnc2[nH]ccc(=O)c12)c1c(Cl)c2cccc(-c3ccc4c(c3)NC(=O)C(C)(C)O4)c2c(=O)n1-c1ccccc1 [Example 373, (S)-6-(4-chloro-1-oxo-3-(1-((5-oxo-5,8-dihydropyrido[2,3-d]pyrimidin-4-yl)amino)ethyl)-2-phenyl-1,2-dihydroisoquinolin-8-yl)-2,2-dimethyl-2H-benzo[b] [1,4]oxazin-3 (4H)-one] |
| – | – | 75 | 33 | 30 | -1 | C[C@H](Nc1ncnc2[nH]ccc(=O)c12)c1c(Cl)c2cccc(NC3CCOCC3)c2c(=O)n1-c1ccccc1 [Example 332, (S)-4-((1-(4-chloro-1-oxo-2-phenyl-8-((tetrahydro-2H-pyran-4-yl)amino)-1,2-dihydroisoquinolin-3-yl)ethyl)amino)pyrido[2,3-d]pyrimidin-5(8H)-one] |
| 98 | 22 | – | – | – | – | C[C@H](Nc1ncnc2[nH]ccc(=O)c12)c1c(Cl)c2cccc(S(=O)(=O)c3ccncc3)c2c(=O)n1-c1ccccc1 [Example 391, (S)-4-((1-(4-chloro-1-oxo-2-phenyl-8-(pyridin-4-ylsulfonyl)-1,2-dihydroisoquinolin-3-yl)ethyl)amino)pyrido[2,3-d]pyrimidin-5(8H)-one] |
| 4 | 37 | – | – | – | – | CC(C)[S@](=N)(=O)c1cccc2c(Cl)c([C@H](C)Nc3ncnc4[nH]ccc(=O)c34)n(-c3ccccc3)c(=O)c12 [Example 411, 4-(((S)-1-(4-chloro-1-oxo-2-phenyl-8-((S)-propan-2-ylsulfonimidoyl)-1,2-dihydroisoquinolin-3-yl)ethyl)amino)pyrido[2,3-d]pyrimidin-5(8H)-one] |
| – | – | 97 | 87 | 67 | 50 | C=Cc1cccc2c(Cl)c([C@H](C)Nc3ncnc4[nH]ccc(=O)c34)n(-c3ccccc3)c(=O)c12 [Example 142, (S)-4-((1-(4-chloro-1-oxo-2-phenyl-8-vinyl-1,2-dihydroisoquinolin-3-yl)ethyl)amino)pyrido[2,3-d]pyrimidin-5(8H)-one] |
| – | – | 87 | 84 | 42 | 38 | C[C@H](Nc1ncnc2[nH]ccc(=O)c12)c1c(Cl)c2cccc(-c3cc(Cl)ccc3F)c2c(=O)n1-c1ccccc1 [Example 140, (S)-4-((1-(4-chloro-8-(5-chloro-2-fluorophenyl)-1-oxo-2-phenyl-1,2-dihydroisoquinolin-3-yl)ethyl)amino)pyrido[2,3-d]pyrimidin-5(8H)-one] |
| 47 | 63 | – | – | – | – | C[C@H](Nc1ncnc2[nH]ccc(=O)c12)c1c(Cl)c2cccc(OCc3ccncc3)c2c(=O)n1-c1ccccc1 [Example 429, (S)-4-((1-(4-chloro-1-oxo-2-phenyl-8-(pyridin-4-ylmethoxy)-1,2-dihydroisoquinolin-3-yl)ethyl)amino)pyrido[2,3-d]pyrimidin-5(8H)-one] |
| – | – | – | – | 105 | 93 | COc1cc(-c2cccc3c(Cl)c([C@H](C)Nc4ncnc5[nH]ccc(=O)c45)n(-c4ccccc4)c(=O)c23)ccn1 [Example 150, (S)-4-((1-(4-chloro-8-(2-methoxypyridin-4-yl)-1-oxo-2-phenyl-1,2-dihydroisoquinolin-3-yl)ethyl)amino)pyrido[2,3-d]pyrimidin-5(8H)-one] |
| – | – | – | – | 57 | 52 | COc1cc(OC(C)C)cc(-c2cccc3c(Cl)c([C@H](C)Nc4ncnc5[nH]ccc(=O)c45)n(-c4ccccc4)c(=O)c23)c1 [Example 157, (S)-4-((1-(4-chloro-8-(3-isopropoxy-5-methoxyphenyl)-1-oxo-2-phenyl-1,2-dihydroisoquinolin-3-yl)ethyl)amino)pyrido[2,3-d]pyrimidin-5(8H)-one] |
| – | – | 95 | 100 | 84 | 78 | C[C@H](Nc1ncnc2[nH]ccc(=O)c12)c1c(Cl)c2cccc(-c3ccc(N)cc3)c2c(=O)n1-c1ccccc1 [Example 94, (S)-4-((1-(8-(4-aminophenyl)-4-chloro-1-oxo-2-phenyl-1,2-dihydroisoquinolin-3-yl)ethyl)amino)pyrido[2,3-d]pyrimidin-5(8H)-one] |
| – | – | 61 | 92 | 50 | 60 | C[C@H](Nc1ncnc2[nH]ccc(=O)c12)c1c(Cl)c2cccc(N3CCN(c4ccncc4)CC3)c2c(=O)n1-c1ccccc1 [Example 9, (S)-4-((1-(4-chloro-1-oxo-2-phenyl-8-(4-(pyridin-4-yl)piperazin-1-yl)-1,2-dihydroisoquinolin-3-yl)ethyl)amino)pyrido[2,3-d]pyrimidin-5(8H)-one] |
| – | – | – | – | 95 | 87 | COc1ccc(-c2cccc3c(Cl)c([C@H](C)Nc4ncnc5[nH]ccc(=O)c45)n(-c4ccccc4)c(=O)c23)cc1OC [Example 155, (S)-4-((1-(4-chloro-8-(3,4-dimethoxyphenyl)-1-oxo-2-phenyl-1,2-dihydroisoquinolin-3-yl)ethyl)amino)pyrido[2,3-d]pyrimidin-5(8H)-one] |
| – | – | – | – | 58 | 67 | C[C@H](Nc1ncnc2[nH]ccc(=O)c12)c1c(Cl)c2cccc(-c3cnc(C4CC4)nc3)c2c(=O)n1-c1ccccc1 [Example 168, (S)-4-((1-(4-chloro-8-(2-cyclopropylpyrimidin-5-yl)-1-oxo-2-phenyl-1,2-dihydroisoquinolin-3-yl)ethyl)amino)pyrido[2,3-d]pyrimidin-5(8H)-one] |
| 84 | 17 | – | – | – | – | C[C@H](Nc1ncnc2[nH]ccc(=O)c12)c1c(Cl)c2cccc(S(=O)(=O)c3ccc(Cl)cc3)c2c(=O)n1-c1ccccc1 [Example 393, (S)-4-((1-(4-chloro-8-((4-chlorophenyl)sulfonyl)-1-oxo-2-phenyl-1,2-dihydroisoquinolin-3-yl)ethyl)amino)pyrido[2,3-d]pyrimidin-5(8H)-one] |
| – | – | 95 | 97 | 68 | 79 | C[C@H](Nc1ncnc2[nH]ccc(=O)c12)c1c(Cl)c2cccc(-c3ccc4[nH]cnc4c3)c2c(=O)n1-c1ccccc1 [Example 125, (S)-4-((1-(8-(1H-benzo[d]imidazol-5-yl)-4-chloro-1-oxo-2-phenyl-1,2-dihydroisoquinolin-3-yl)ethyl)amino)pyrido[2,3-d]pyrimidin-5(8H)-one] |
| – | – | – | – | 99 | 66 | Cc1ccc(-c2cccc3c(Cl)c([C@H](C)Nc4ncnc5[nH]ccc(=O)c45)n(-c4ccccc4)c(=O)c23)c(C)n1 [Example 248, (S)-4-((1-(4-chloro-8-(2,6-dimethylpyridin-3-yl)-1-oxo-2-phenyl-1,2-dihydroisoquinolin-3-yl)ethyl)amino)pyrido[2,3-d]pyrimidin-5(8H)-one] |
| – | – | – | – | 69 | 48 | C[C@H](Nc1ncnc2[nH]ccc(=O)c12)c1c(Cl)c2cccc(-c3ccc(OCC(F)(F)F)nc3)c2c(=O)n1-c1ccccc1 [Example 147, (S)-4-((1-(4-chloro-1-oxo-2-phenyl-8-(6-(2,2,2-trifluoroethoxy)pyridin-3-yl)-1,2-dihydroisoquinolin-3-yl)ethyl)amino)pyrido[2,3-d]pyrimidin-5(8H)-one] |
| – | – | – | – | 79 | 45 | COc1ncc(-c2cccc3c(Cl)c([C@H](C)Nc4ncnc5[nH]ccc(=O)c45)n(-c4ccccc4)c(=O)c23)cc1Cl [Example 187, (S)-4-((1-(4-chloro-8-(5-chloro-6-methoxypyridin-3-yl)-1-oxo-2-phenyl-1,2-dihydroisoquinolin-3-yl)ethyl)amino)pyrido[2,3-d]pyrimidin-5(8H)-one] |
| – | – | – | – | 44 | 67 | C[C@H](Nc1ncnc2[nH]ccc(=O)c12)c1c(Cl)c2cccc(-c3ccc(CN4CCOCC4)cc3F)c2c(=O)n1-c1ccccc1 [Example 231, (S)-4-((1-(4-chloro-8-(2-fluoro-4-(morpholinomethyl)phenyl)-1-oxo-2-phenyl-1,2-dihydroisoquinolin-3-yl)ethyl)amino)pyrido[2,3-d]pyrimidin-5(8H)-one] |
